{"source": "patent US12103952B2", "about": "“Methods for expressing proteins in axons” (Cornell University, priority 2010, dated 2024)", "key": {"pCREB": {"tested_on": "pCREB", "assay": "Nuclear pCREB, pTrkA and pErk5 immunofluorescence after axonal NGF in compartmented cultures", "type": "cell-based, rat", "conditions": "30 ng/ml NGF on axons, 20 min", "description": "FIGS. 9A-E are data showing that axonal CREB is required for CRE-dependent transcription and NGF-mediated DRG survival. (A) DRG axons in compartmented cultures were transfected with CREB siRNA in the axon compartment only, and CREB levels were detected using a CREB antibody. Axons crossing the compartment divider were retrogradely labeled with WGA-Alexa488. All compartments were maintained in NGF-containing media throughout the experiment. Scale bar, 50 μm. (B) Quantification of data in (A). Immunofluorescence levels in each compartment were normalized to fluorescence signals from cultures treated with non-targeting siRNA. *p<0.0001. Numbers on bars represent n axons per condition. […] After 48 hours, 30 ng/ml NGF was added to the axon compartment for 20 min, after which pCREB levels in nuclei were quantified by immunofluorescence. *p=0.0004. […]\nFIGS. 10A-G are data showing selective CREB knockdown in distal axons, but not proximal axons determined by compartmentalized siRNA transfection. […] (B) Quantification of data in (A). FISH levels in each compartment were normalized to fluorescence signals from cultures treated with non-targeting siRNA. β-actin mRNA FISH signals were unaffected by CREB-specific siRNA. *p<0.001. […] (C) Transfection was as in FIG. 9A, except CREB knockdown was assessed by Western blot instead of immunofluorescence. […]"}, "4E-BP1": {"tested_on": "4E-BP1", "assay": "Phospho-4E-BP1 immunofluorescence in axons", "type": "cell-based, rat", "conditions": "NGF 1 hour after 2 hour NGF-free media", "protocol": "FIGS. 2A-E are results showing that local protein synthesis in axons is required for NGF-dependent survival. (A) Phospho-4E-BP1 levels increase in growth cones in response to NGF treatment. DRG neurons were incubated with NGF-replete or NGF-free media; phospho-4E-BP1 levels in axons were measured by immunofluorescence. Scale bar, 50 μm. (B) Quantification of total and phospho-4EBP1 in (A) p=0.012. Numbers on bars represent n axons per condition. (C) Schematic diagram of compartmented (Campenot) chambers. E15 dissociated DRG neurons are cultured in the cell body compartment and axons grow under a thinly applied silicone grease layer that seals the chamber with the Permanox® plastic culture slide. (D) Application of protein synthesis inhibitors to axons blocks NGF-mediated retrograde survival. Dissociated DRG neurons were grown in compartmentalized chambers, and vehicle or NGF was added to the axon compartment. 1 μM cycloheximide (CHX) or 40 μM anisomycin (Aniso) were added to the axon compartment concurrently with NGF media. Cell body compartments were kept NGF-free during the course of the experiment. Cells crossing the divider were retrogradely labeled with WGA-Alexa555 and only WGA-positive cell bodies were counted in the data set. Survival was assessed by TUNEL assay. […] (E) Quantification of results from (D). *p<0.001. […]"}}, "data": [{"substance": "NGF: nerve growth factor", "values": [{"measurement": "levels of pCREB in the nucleus", "setting": "pCREB", "result": "increased levels of pCREB in the nucleus"}, {"measurement": "phosphorylation of 4E-BP1 in axons", "setting": "4E-BP1", "result": "increased phosphorylation of 4E-BP1 at S64 and T69"}]}]}
